Each structure is given as a SMILES string. Entries after “also recorded” stand apart in the source; their conditions may differ.

In test [1] the test system is allogeneic stimulation of human lymphocytes. Nature of the test: Human mixed lymphocyte reaction (allogeneic stimulation), 3H-thymidine. The settings on record: allogeneic stimulation, harvest 120 hours, drug titration (FIGS. 7B, 8B, 9B). It counts as cell-based. The text has this: Blood from two healthy, non-related, donors was taken as described above. Peripheral blood mononuclear cells were isolated as described previously elsewhere. The adherent cells were separated from the suspension cells as described previously for both donors. Suspension cells from both donors (donors A and B) were used as responders. The remaining adherent cells from each of the donors were used as stimulators against a different donor (suspension A against adherent B and adherent A against suspension B). The stimulator cells were irradiated at 35 Gy. Drugs were pre-plated onto 96 well, U-bottom plates in triplicate. 200,000 “stimulator” cells in RPMI supplemented with 10% human serum were then plated in each well. 200,000 “responder” cells in the same medium were then plated over stimulators to a final volume of 200 μl/well. Background controls received either no stimulator cells, or no responder cells. The plates were incubated at 37° C. and 5% CO2. 1 μCi of tritiated thymidine was added to each well after 4.5 days, and the plates were harvested 12 hours later.

Test [2] concerns ConA stimulated human lymphocytes. Kind of test: Human mitogenic (ConA) stimulation, 3H-thymidine incorporation. It counts as cell-based. The settings on record: for activation / proliferative response: 5 μg/ml ConA, harvest 72 hours, drug titration (FIGS. 7A, 8A, 9A, 17, 33). On the procedure:
Blood from healthy volunteers was drawn using venipuncture, using Vacutainer collection sets and heparinized collection vials. The blood was diluted 1:1 using HBSS to a total volume of 30 ml in 50 ml conical tubes (Fisher Scientific, Co., Pittsburgh, Pa.). […] Cells from the buffy coats were collected and the residual Histopaque was washed away using repeated centrifugations in HBSS. After washes, cells were resuspended at 5 million cells per ml in RPMI, supplemented with 2% FBS. To remove adherent cells, the suspension was plated onto a 6 well flat-bottom plate (Corning Costar), 3 ml/well, and incubated for 2 hours at 37° C., 5% CO2. Non-adherent cells were harvested after this incubation, were counted and resuspended in RPMI supplemented with 10% human serum (Sigma).
All drugs were pre-plated before the cell suspension was added onto each well of a 96-well round-bottom plate. All experimental conditions were assayed in at least triplicate. Cells suspended in RPMI supplemented with 10% human serum were plated at 100,000 cells per well to a final volume of 200 μl. […] Control samples received no ConA stimulation. The plates were incubated at 37° C. and 5% CO2.
(In general: Incorporation of labelled thymidine or its analogues reports DNA synthesis.)

The test system of test [3] is allogeneic CTL response against P815 cells. Kind of test: Murine allograft model, CTL killing of P815 target cells by splenocytes. It counts as in vivo, C57BL/6J mice. The following applies: Cyclosporin A 100 μg ip daily from day −2; for allograft (CTL) response: 5HT antagonists 200 μg/injection tail vein days 6 and 8, sacrifice day 14 (FIGS. 13, 14); for allogeneic killing response: serotonin-specific compounds 300 μg/injection tail vein days 5 and 7, sacrifice day 14 (FIGS. 18A, 18B). On the procedure: The in vivo validation screen used was an art-recognized murine allogeneic rejection model as described in Zhan et al., 2000. For this assay, a complete MHC miss-match system was employed wherein 5×10^6 P815 cells ([H-2^d] DBA/2 mastocytoma) were injected into the peritoneal cavity of C57BL/6J (H-2^b) mice on day 0 of the experiment. These mice typically generate a strong cytotoxic T lymphocyte (CTL) reaction in response to P815 cells. Following the initial P815 cell inoculation, the mice were allowed to develop a CTL response (this usually takes about 10-14 days). […] Mice were then sacrificed on day 14 of the experiment as indicated in the figures; and the allogeneic CTL response was assayed as described previously (Tretiakova et al., 2000, Nature Biotechnology 18:984-988). The primary spleen cells from the treated and untreated animals were used in the direct CTL readout. Freshly obtained primary spleen cells were incubated with the [^3H] labeled target cells (P815 cells) at 100:1, 50:1, 25:1, and 12.5:1 ratios for 3.5 hours at 37° C. and harvested using a PHD harvester. The percentage of specific killing was determined using the formula % kill=(S−E)/S, where S is the amount of the DNA retained by the target cells in the absence of the effector cells and E is the amount of retained DNA in the presence of the effector cells (expressed in counts per minute; cpm).
This is an art-recognized model of allograft […] rejection based on that described by […]. (2000). In this model, there is a complete MHC mismatch between the P815 cells (H-2^d) and the C57BL6 mouse (H-2^b), thus ensuring an aggressive immune response. The data disclosed in FIG. 13, depicts results of experiments that included 6 treatment groups, each group consisting of three mice. Each mouse received 5×10^6 P815 cells injected into the peritoneal cavity on day 0 of the study. The first group was an untreated control group, which was used to establish the baseline response of the mice against the allogeneic stimulus. These mice, without any further treatments, were sacrificed, as were the other treatment groups, on day 14 of the study and their splenocytes assayed for target-specific killing of the P815 cells.
The average kill observed for the untreated group was about 45% at an effector to target ratio of 100:1. The second group was treated with risperidone, a 5HT-2 antagonist, administered via a tail vein bolus injection (200 μg/injection) on days 6 and 8 of the study. The timing of the drug administration was selected to ensure that the T cells were fully activated prior to the drug treatment. The third group was treated with propanolol, a 5HT-1 antagonist. All of the 5HT receptor antagonist-treated groups were treated as described for the risperidone-treated group. The fourth group was treated chronically with CyclosporinA. The Cyclosporin A was administered ip at a dosage of 100 μg/injection starting two days prior to the onset of the study, i.e., at day −2, and the injections were continued on a daily basis for the duration of the study.
Finally, studies conducted in vivo using the CD8-dependent allograft rejection model, in which P815 cells (a rapidly growing cell line taken from a mastocytoma in a DBA mouse), were expanded and used to create a robust rejection response in a C57BL6 mouse. In this study the mice received 5×10^6 P815 cells injected into their peritoneal cavity on day 0 of the study. The first group was an untreated control group (naïve animals), used to acquire the baseline response of the mice against the allogeneic stimulus. The positive controls were treated with the allogeneic cells without any further treatments. These animals were used to assess the induced allogeneic response against the P815 cells. […]

In test [4] the test system is RPMI-8226 cells. Nature of the test: Cytospin histochemistry (H&E, bis-benzamide) for chromatin. The following applies: 9 hour treatments; 50 μM SB compounds, 2 μM camptothecin (FIGS. 28, 29). Format: cell-based, human. As to the method:
2.0×10^5 RPMI-8226 cells were cultured, in 6-well culture plates, in the presence of the indicated drug concentrations, in a total of 5 mL RPMI-1640 supplemented with 10% FBS. Each well was harvested in its entirety and divided into two identical samples for cytospins.
1.0×10^5 RPMI-8226 cells from each treatment group were loaded into Cyto-funnels and centrifuged at 500 rpm for 4 minutes with medium acceleration. Slides were then fixed through graded methanol in PBS (100%, 5 minutes; 80%, 5 minutes; 50%, 5 minutes), washed for 5 minutes in PBS and stored in PBS at 4° C. until stained.
Cytospun slides were stained with Hematoxylin and Eosin, followed by the nuclear stain, bis-benzamide, rinsed and mounted according to standard staining protocols. Slides were visualized under both brightfield and fluorescent light to generate matched images of the same slide field (see, e.g., FIGS. 28 and 29).

Test [5] deals with RPMI 8226 multiple myeloma cells. Kind of test: RPMI 8226 cell viability and proliferation (trypan blue, MTT, 3H-thymidine). Format: cell-based, human. The following applies: 3H-thymidine uptake, drug titration (FIGS. 19-25, 31, 32). On the procedure:
The human plasmacytoma (multiple myeloma) cell line, RPMI 8226 (American Type Culture Collection, Manassas, Va.), was cultured in RPMI 1640 supplemented with 10 mM HEPES, 1 mM sodium pyruvate, 4.5 g/L glucose, 1.5 g/L bicarbonate and 20% FBS (non-heat inactivated).
Cell proliferation was assayed by three methods—Trypan Blue Exclusion was used to quantify the number of viable cells in culture; 3-(4,5-dimethylthiazol-2-yl)-2,5-diphenyl tetrazolium bromide (MTT) reduction was used to assay mitochondrial activity (and thus cell viability); and ^3H-Thymidine uptake was employed to assay for active DNA synthesis.
Three separate indicators of cell proliferation were employed to study the effects of 5-HT receptor modulating agents on the human multiple myeloma cell line, RPMI 8226. Cells were plated at 4 separate densities and were treated with LY53587 (an antagonist of the 5-HT2A/2B/2C receptors) at a range of concentrations. The exclusion of trypan blue dye was used as an indicator of cell viability. Cell numbers were then plotted against the concentration of drug added.
MTT reduction was also used as an indicator of cell viability (more specifically, mitochondrial activity). Absorbance values at OD570 were then plotted against drug concentration. Finally, DNA synthesis was assayed, through the measurement of ^3H-thymidine uptake, and counts per minute (CPMs) were plotted against drug concentration.
Culturing and administration of drugs and ^3H-thymidine were performed as described elsewhere herein.

In the case of `OC(CN1CCN(c2cccc(Cl)c2)CC1)C(c1ccccc1)c1ccccc1` (stereo not drawn) [BRL 15572], the “activation / proliferative response” value in test [1] and in test [2] was “had no effect upon the proliferative response” each time.

As for `COc1ccccc1N1CCN(CCN(C(=O)C2CCCCC2)c2ccccn2)CC1` [WAY 100635], the “in vitro activation / proliferation of (helper) T cells” value in test [2] was “significantly inhibits the activation response”.

Consider `CC(O)C(C)OC(=O)[C@@H]1C[C@@H]2c3cccc4c3c(cn4C(C)C)C[C@H]2N(C)C1` (stereo partly drawn) [LY 53857], for which the “activation / proliferative response” value in test [1] and in test [2] was “inhibit the activation response at pharmacologically relevant concentrations” throughout.

In the case of `Cn1ccc2cc3c(cc21)CCN3C(=O)Nc1cccnc1` [SB 206553], the “activation / proliferative response” value in test [1] is on record as “inhibit the activation response at pharmacologically relevant concentrations”. In test [2], the “activation / proliferative response” value is listed as “inhibit the activation response at pharmacologically relevant concentrations” and the “in vitro activation / proliferation of (helper) T cells” value is reported as “immediate cessation of proliferation”. Besides, in test [3], the “allograft (CTL) response” value is on record as “Two of the treated mice had the allogeneic response completely suppressed; also recorded: Two of the three treated mice inhibited the allograft response to a degree equivalent to that observed in the Cyclosporin A-treated animals” and the allogeneic killing response result is recorded as “striking”. Also, the “allograft (CTL) response” value in test [3] (listed as SB206553) was “inhibited the allograft response to varying degrees”.

Consider `N[C@@H](Cc1c[nH]c2ccc(O)cc12)C(=O)O` [5-hydroxytryptophan], for which the proliferation response result in test [2] (25 μM, in the absence of PCPA (FIG. 3)) is recorded as “significantly enhanced the proliferation response”. Further, the “reversal of PCPA inhibition of mitogenic response” value in test [2] (added to PCPA-inhibited cells (FIG. 3)) was “this inhibition can be reversed”.

On to `CC[C@@]1(O)C(=O)OCc2c1cc1n(c2=O)Cc2cc3ccccc3nc2-1` [camptothecin], for which the “chromatin condensation / fragmentation (apoptosis)” value in test [4] was “Extensive chromatin condensation and nuclear fragmentation”.

Regarding `CSc1ccc2c(c1)C(N1CCN(C)CC1)Cc1ccccc1S2` (stereo not drawn) [methiothepin], the “activation / proliferative response” value in test [1] and in test [2] was “inhibit the activation response at pharmacologically relevant concentrations” each time. Besides, the “growth / proliferation of RPMI 8226 cells” value in test [5] is reported as “strong inhibition of growth”.

Take `NNCCc1ccccc1` [phenelzine]: the “drug concentration giving significant inhibition” value in test [2] (0.1 and 1 μg/ml ConA (FIGS. 5A, 5B)) fell in the range of 10 to 100 µM. Moreover, the “drug concentration at which full inhibition occurs” value in test [2] (higher ConA stimulation (10 μg/ml)) was 100 to 400 µM. Besides, in test [2] (highest ConA dose 10 μg/ml, harvest 72 hours (FIG. 5C)), the proliferative response entry is “no inhibition was observed”. Also, the “stimulation of ConA-activated human PBLs” value in test [2] (reagents at 400 μM, time course (FIG. 4)) is given as “completely shut down the stimulation”.

Take `CC[C@@H](CO)NC(=O)[C@@H]1C=C2c3cccc4c3c(cn4C)C[C@H]2N(C)C1` [methysergide]: in test [3], the “allograft (CTL) response” value is “inhibited the allograft response to varying degrees” and the allogeneic killing response result was “complete inhibition of the induced killing response; also recorded: abrogated the allogeneic killing response; also recorded: inhibition profile was striking”.

As to `N[C@@H](Cc1ccc(Cl)cc1)C(=O)O` (racemic) [PCPA, para-chlorophenylalanine], the mitogenic response entry in test [2] (human PBLs, 1 μg/ml ConA, PCPA titration (FIG. 3)) is listed as “inhibits the mitogenic response in a dose-dependent manner”.
